Consider one compound from US10143771B2, “Antioxidant and antimicrobial wound dressing materials” (KCI USA, Inc., priority 2003, dated 2018).

For assay [1], the system named is Pseudomonas aeruginosa (ATCC 27853 and various PSI strains). Nature of the assay: Zone of inhibition test, Procedure 2. The settings on record: Pseudomonas aeruginosa on DSA plates, 37° C., over the test period (every 24 hours for 72 hours). Format: cell-based. As to the method: (§1) Six 2 cm×2 cm squares of each sample are cut out in sterile conditions. On day one of the experiment, cultures of both Pseudomonas aeruginosa (ATCC 27853 and various PSI strains) and Staphylococcus aureus (provided by the Dept of Clinical Microbiology and Pathology) are incubated aerobically at 37° C. for 24 hours on Diagnostic Sensitivity Agar (DSA). After 24 hours test samples are each placed on a DSA plate and immediately wetted with 0.5 mls of a buffer solution. Three squares of sample are placed on plates inoculated with Pseudomonas aeruginosa and three are placed on plates inoculated with Staphylococcus aureus. The plates are then incubated at 37° C. for 24 hours. The zone of inhibited growth around the sample is then measured using calipers, and the test sample is placed on a new inoculated DSA plate. A swab test is carried out on the area beneath the sample to determine if the sample is bacteriostatic if not bactericidal by smearing the swab on a DSA plate and incubating it for 24 hours and then examining the growth.

Assay [2] deals with Staphylococcus aureus. Nature of the assay: Zone of inhibition test, Procedure 2. As to conditions: Staphylococcus aureus on DSA plates, 37° C., over the test period (every 24 hours for 72 hours). It is filed as cell-based. On the procedure:
as §1

For the compound `O=[N+]([O-])[O-].[Ag+]` [silver nitrate solution (0.5%), silver nitrate], the zone of inhibition result in assay [1] and in assay [2] was “zones of inhibition were observed” in each case.
